As usually defined, the IC50 is the point on the concentration scale where inhibition reaches its midpoint.

For the experiment, the target named is T1, Human MTHFD2 (Homo sapiens, UniProt P13995).
T1 construct: residues 36-350 in Uniport ID P13995; His6 (N); made in house; host or cells: E. coli
T1 sequence (P13995 36-350): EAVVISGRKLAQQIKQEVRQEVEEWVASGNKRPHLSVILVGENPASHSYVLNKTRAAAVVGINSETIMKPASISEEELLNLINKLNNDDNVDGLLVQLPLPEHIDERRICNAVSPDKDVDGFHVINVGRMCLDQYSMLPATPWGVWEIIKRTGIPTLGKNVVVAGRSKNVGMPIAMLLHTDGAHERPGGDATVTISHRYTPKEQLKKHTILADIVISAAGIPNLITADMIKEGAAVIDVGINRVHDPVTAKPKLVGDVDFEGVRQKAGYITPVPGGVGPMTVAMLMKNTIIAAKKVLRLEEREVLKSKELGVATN
Put plainly: MTHFD2 Activity Assay (dehydrogenase activity, diaphorase/resazurin coupled fluorescence). The experiment is classed as biochemical. Conditions: inhibitory activity (IC50 and/or binding constant); 0.2 nM MTHFD2, 11 concentrations. An excerpt: Human MTHFD2 (residues 36-350 in Uniport ID P13995) was expressed as an N-terminal His6 tagged protein and purified in E. coli using nickel capture followed by size-exclusion chromatography.
MTHFD2 dehydrogenase activity oxidizes methylene tetrahyrofolate to methenyl-tetrahydrofolate with the concomitant reduction of NAD to NADH. MTHFD2 dehydrogenase activity was followed by coupling the generation of NADH to diaphorase catalyzed […] of resazurin to fluorescent resorufin. Briefly, control (DMSO) or compound was incubated with 0.2 nM MTHFD2 for 15 minutes in 10.5 μl assay buffer containing 100 mM Hepes, pH 8.0, 5 mM MgCl2, 5 mM KH2PO4, 0.05% BSA, 0.01% Tween-20 in a 384 well Griener, low volume, black plate. 10 μl of substrate buffer containing 70 μM CH2-THF, 1 mM NAD^+, 100 μM Resazurin and 0.42 mg/ml diaphorase was then added to initiate the reaction and the reaction plate was incubated for 30 minutes. 5 μl of 250 mM EDTA was then added to each well to stop the reaction and MTHFD2 activity was quantified by measuring resorufin fluorescence emission at 598 nm following excitation at 525 nm. Activity in positive control wells containing the complete reaction mixture and DMSO alone was set to 100% while activity in negative control wells with the complete reaction mix without MTHFD2 was set to 0%. 11 concentrations of each compound were tested and the fluorescent data at each concentration was normalized to the positive and negative controls and represented as % inhibition. Median inhibitory concentration (IC50) was calculated by fitting % inhibition at each concentration to a 4 parameter logistic fit equation using Graphpad Prizm.
The compound numbers correspond to the compound numbers in Table A (i.e., the example numbers).
Molecule `Cn1c(N[C@@H]2CCCNC2=O)nc2c1c(=O)n(Cc1cc3ccccc3[nH]1)c(=O)n2C` [Example 221, (R)-1-((1H-indol-2-yl)methyl)-3,7-dimethyl-8-(2-oxopiperidin-3-ylamino)-1H-purine-2,6(3H,7H)-dione] had an IC50 of 1 to 5 µM.

Molecule `Cn1c(NC2CC2)nc2c1c(=O)n(Cc1ccc(Cl)c(Cl)c1)c(=O)n2C` [Example 271, 8-(cyclopropylamino)-1-[(3,4-dichlorophenyl)methyl]-3,7-dimethyl-purine-2,6-dione] came in with an IC50 of 0.01 to 1 µM.

In turn, `Cn1c(N[C@H]2CCCNC2=O)nc2c1c(=O)n(Cc1cc3ccccc3[nH]1)c(=O)n2C` [Example 213, (S)-1-((1H-indol-2-yl)methyl)-3,7-dimethyl-8-(2-oxopiperidin-3-ylamino)-1H-purine-2,6(3H,7H)-dione] came in with an IC50 of 0.01 to 1 µM.

For `Cn1c(Cn2c(=O)c3c(nc(-n4ncnc4N)n3C)n(C)c2=O)cc2cc(Cl)ccc21` [Example 230, 8-(5-amino-1H-1,2,4-triazol-1-yl)-1-((5-chloro-1-methyl-1H-indol-2-yl)methyl)-3,7-dimethyl-1H-purine-2,6(3H,7H)-dione], the 50% inhibitory concentration (IC50) was 0.01 to 1 µM.

For `Cn1c([C@H](N)Cc2cccnc2)nc2c1c(=O)n(Cc1cc3c(Cl)cccc3[nH]1)c(=O)n2C` [Example 470, (R)-8-(1-amino-2-(pyridin-3-yl)ethyl)-1-((4-chloro-1H-indol-2-yl)methyl)-3,7-dimethyl-1H-purine-2,6(3H,7H)-dione], the IC50 lay within 0.01 to 1 µM.

On to `Cn1c(CO)nc2c1c(=O)n(Cc1ccc(Cl)c(Cl)c1)c(=O)n2C` [Example 100, 1-(3,4-dichlorobenzyl)-8-(hydroxymethyl)-3,7-dimethyl-1H-purine-2,6(3H,7H)-dione], for which the IC50 lay within 1 to 5 µM.

Take `Cn1c(Nc2ccc(C(N)=O)nc2)nc2c1c(=O)n(Cc1cc3c(Cl)cccc3[nH]1)c(=O)n2C` [Example 409, 5-(1-((4-chloro-1H-indol-2-yl)methyl)-3,7-dimethyl-2,6-dioxo-2,3,6,7-tetrahydro-1H-purin-8-ylamino)picolinamide]: the IC50 lay within 0.01 to 1 µM.

As for `C[C@H](O)CNc1nc2c(c(=O)n(Cc3ccc(C(F)(F)F)cc3)c(=O)n2C)n1C` [Example 36, 8-{[(2S)-2-hydroxypropyl]amino}-3,7-dimethyl-1-{[4-(trifluoromethyl)phenyl]methyl}-2,3,6,7-tetrahydro-1H-purine-2,6-dione], the IC50 lay in the range of 5 to 10 µM.

`Cn1c(N[C@@H]2CCCC[C@@H]2O)nc2c1c(=O)n(Cc1ccc(Cl)c(Cl)c1)c(=O)n2C` (racemic) [Example 95, (±)-1-[(3,4-dichlorophenyl)methyl]-8-{[(cis)-2-hydroxycyclohexyl]amino}-3,7-dimethyl-2,3,6,7-tetrahydro-1H-purine-2,6-dione] had an IC50 of 1 to 5 µM.

The molecule `CN(C(=O)CCc1nccc(Nc2nc3c(c(=O)n(Cc4cc5c(Cl)cccc5[nH]4)c(=O)n3C)n2C)n1)C1CC1` [Example 414, 3-(4-(1-((4-chloro-1H-indol-2-yl)methyl)-3,7-dimethyl-2,6-dioxo-2,3,6,7-tetrahydro-1H-purin-8-ylamino)pyrimidin-2-yl)-N-cyclopropyl-N-methylpropanamide] registered a half-maximal inhibitory concentration (IC50) of 0.01 to 1 µM.

In turn, `Cn1c(Cn2c(=O)c3c(nc(Nc4ccncn4)n3C)n(C)c2=O)cc2cc(Cl)ccc21` [Example 204, 1-((5-chloro-1-methyl-1H-indol-2-yl)methyl)-3,7-dimethyl-8-(pyrimidin-4-ylamino)-1H-purine-2,6(3H,7H)-dione] gave an IC50 of 0.01 to 1 µM.

On to `Cn1c(Nc2ncco2)nc2c1c(=O)n(Cc1ccc(Cl)c(Cl)c1)c(=O)n2C` [Example 123, 1-(3,4-dichlorobenzyl)-3,7-dimethyl-8-(oxazol-2-ylamino)-1H-purine-2,6(3H,7H)-dione], for which the IC50 fell in the range of 5 to 10 µM.

In the case of `COc1nc2c(c(=O)n(Cc3cc4cccc(Cl)c4[nH]3)c(=O)n2C)n1C` [Example 421, 1-[(7-chloro-1H-indol-2-yl)methyl]-8-methoxy-3,7-dimethyl-purine-2,6-dione], the IC50 lay within 0.01 to 1 µM.

As to `COC(=O)c1nc2c(c(=O)n(Cc3ccc(Cl)c(Cl)c3)c(=O)n2C)n1C` [Example 161, Methyl 1-(3,4-dichlorobenzyl)-3,7-dimethyl-2,6-dioxo-2,3,6,7-tetrahydro-1H-purine-8-carboxylate], the IC50 was 1 to 5 µM.

On to `Cn1c(NCCCO)nc2c1c(=O)n(Cc1ccc(F)c(F)c1)c(=O)n2C` [Example 29, 1-[(3,4-difluorophenyl)methyl]-8-[(3-hydroxypropyl)amino]-3,7-dimethyl-2,3,6,7-tetrahydro-1H-purine-2,6-dione], for which the IC50 was more than 10 µM.

Turning to `Cn1c(NC2CCNC(=O)C2)nc2c1c(=O)n(Cc1ccc(Cl)c(Cl)c1)c(=O)n2C` (racemic) [Example 211, (±)-1-(3,4-dichlorobenzyl)-3,7-dimethyl-8-(2-oxopiperidin-4-ylamino)-1H-purine-2,6(3H,7H)-dione], the IC50 was 0.01 to 1 µM.

In the case of `Cn1cnc2c1c(=O)n(Cc1cc3cc(C#N)ccc3[nH]1)c(=O)n2C` [Example 257, 2-((3,7-dimethyl-2,6-dioxo-2,3,6,7-tetrahydro-1H-purin-1-yl)methyl)-1H-indole-5-carbonitrile], the IC50 is 1 to 5 µM.

Turning to `Cn1c(N[C@H]2CC[C@@H](O)C2)nc2c1c(=O)n(Cc1cc3ccccc3[nH]1)c(=O)n2C` (racemic) [Example 155, (±)-1-((1H-indol-2-yl)methyl)-8-((cis)-3-hydroxycyclopentylamino)-3,7-dimethyl-1H-purine-2,6(3H,7H)-dione], the IC50 was 0.01 to 1 µM.

The molecule `Cn1c(NCCCO)nc2c1c(=O)n(Cc1ccc(C(F)(F)F)cc1)c(=O)n2C` [Example 56, 8-[(3-hydroxypropyl)amino]-3,7-dimethyl-1-{[4-(trifluoromethyl)phenyl]methyl}-2,3,6,7-tetrahydro-1H-purine-2,6-dione] had an IC50 of 5 to 10 µM.

In turn, `Cn1c(NC[C@@H](O)CO)nc2c1c(=O)n(Cc1ccc(Cl)cc1)c(=O)n2C` [Example 15, 1-[(4-chlorophenyl)methyl]-8-{[(2R)-2,3-dihydroxypropyl]amino}-3,7-dimethyl-2,3,6,7-tetrahydro-1H-purine-2,6-dione] registered an IC50 of 5 to 10 µM.

Molecule `Cn1c(N[C@H]2CC[C@@H](CO)C2)nc2c1c(=O)n(Cc1cc3ccccc3[nH]1)c(=O)n2C` (stereo in doubt) [Example 317, 1-((1H-indol-2-yl)methyl)-8-((1S,3R)-3-(hydroxymethyl)cyclopentylamino)-3,7-dimethyl-1H-purine-2,6(3H,7H)-dione] showed an IC50 of 0.01 to 1 µM.

On to `Cn1c(NC2COC2)nc2c1c(=O)n(Cc1ccc(Cl)c(Cl)c1)c(=O)n2C` [Example 245, 1-(3,4-dichlorobenzyl)-3,7-dimethyl-8-(oxetan-3-ylamino)-1H-purine-2,6(3H,7H)-dione], for which the IC50 is 0.01 to 1 µM.

`Cn1c(Nc2cccc([C@H]3C[C@H]3C(=O)O)n2)nc2c1c(=O)n(Cc1cc3c(Cl)cccc3[nH]1)c(=O)n2C` (racemic) [Example 372, (±)-cis-2-(6-((1-((4-chloro-1H-indol-2-yl)methyl)-3,7-dimethyl-2,6-dioxo-2,3,6,7-tetrahydro-1H-purin-8-yl)amino)pyridin-2-yl)cyclopropane-1-carboxylic acid] displayed an IC50 of 0.01 to 1 µM.

`COc1cc(Cn2c(=O)c3c(nc(NCCCO)n3C)n(C)c2=O)ccc1Cl` [Example 96, 1-[(4-chloro-3-methoxyphenyl)methyl]-8-[(3-hydroxypropyl)amino]-3,7-dimethyl-2,3,6,7-tetrahydro-1H-purine-2,6-dione] came in with an IC50 of 1 to 5 µM.

The molecule `Cn1c(N[C@@H]2CC[C@@H](O)C2)nc2c1c(=O)n(Cc1ccc(C(F)(F)F)cc1)c(=O)n2C` (single isomer, unassigned) [Example 76, 8-((1R,3R)-3-hydroxycyclopentylamino)-3,7-dimethyl-1-(4-(trifluoromethyl)benzyl)-1H-purine-2,6(3H,7H)-dione or 8-((1S,3S)-3-hydroxycyclopentylamino)-3,7-dimethyl-1-(4-(trifluoromethyl)benzyl)-1H-purine-2,6(3H,7H)-dione] came in with an IC50 of 1 to 5 µM.

`Cn1c(N[C@@H]2CC[C@@H](O)C2)nc2c(=O)n(Cc3ccc(Cl)c(Cl)c3)c(=O)n(C)c21` [Example 262, 1-(3,4-dichlorobenzyl)-8-((1R,3R)-3-hydroxycyclopentylamino)-3,9-dimethyl-1H-purine-2,6(3H,9H)-dione]: the IC50 is more than 10 µM.
